Key:
[1] = test system: Salmonella Typhi strain χ9639(pYA4088); assay: microbe, parasite or virus in culture; format: cell-based; settings: for MIC: Salmonella enterica, TYPHI, read-out: Minimum inhibitory concentration
Source text: (§1) Master seed and working seed banks of each vaccine organism in separate vials have been prepared for frozen storage in vegetable-based cryopreservative. […] Ampicillin, ciprofloxacin, ceftriaxone and trimethoprim/sulfamethoxazole are typically tested for minimum inhibitory concentrations (MICs) for Salmonella.

[2] = test system: Salmonella Typhi strain χ9640(pYA4088); assay: microbe, parasite or virus in culture; format: cell-based; settings: for MIC: Salmonella enterica, TYPHI, read-out: Minimum inhibitory concentration
Source text: as §1

[3] = test system: Salmonella Typhi strain χ9633(pYA4088); assay: Minimum inhibitory concentrations of antibiotics; format: cell-based; settings: for MIC: Salmonella enterica, TYPHI, read-out: Minimum inhibitory concentration
Source text: (§2) Master seed and working seed banks of each vaccine organism in separate vials have been prepared for frozen storage in vegetable-based cryopreservative. […] Antibiotic sensitivity testing has confirmed that these strains are sensitive to ciprofloxacin, ampicillin, ceftriaxone, trimethoprim/sulfamethoxazole (Table 15). Ampicillin, ciprofloxacin, ceftriaxone and trimethoprim/sulfamethoxazole are typically tested for minimum inhibitory concentrations (MICs) for Salmonella.

[4] = test system: the three vaccine strains (RASV-Sp); assay: Antibiotic sensitivity testing of the vaccine strains; format: cell-based, Salmonella Typhi
Source text: as §2

Compound	MIC [1] [µg/mL]	MIC [2] [µg/mL]	MIC [3] [µg/mL]	antibiotic sensitivity [4]	Minimum inhibitory concentration [1] [µg/mL]	Minimum inhibitory concentration [2] [µg/mL]	Minimum inhibitory concentration [3] [µg/mL]
CC1(C)S[C@@H]2[C@H](NC(=O)[C@H](N)c3ccccc3)C(=O)N2[C@H]1C(=O)O [ampicillin]	< 2	< 2	< 2	sensitive			
CO/N=C(\C(=O)N[C@@H]1C(=O)N2C(C(=O)O)=C(CSc3nc(=O)c(=O)[nH]n3C)CS[C@H]12)c1csc(N)n1 [ceftriaxone]	< 1	< 1	< 0.25	sensitive			
O=C(O)c1cn(C2CC2)c2cc(N3CCNCC3)c(F)cc2c1=O [ciprofloxacin]	< 0.25	< 0.25	< 0.25	sensitive			
trimethroprim-sulfamethoxazole				sensitive	<20	<20	<20
